Measured values from ChEMBL document CHEMBL1145702, “(+)-Angchibangkine, a new type of bisbenzylisoquinoline alkaloid, and other dimers from Pachygone dasycarpa” (J Nat Prod, 1997).
In brackets after ≈: the same amount, converted by molar mass.

Tests used:
Plasmodium falciparum [1] = experiment: Antiplasmodial activity against chloroquine-sensitive Plasmodium falciparum D6 as [3H]hypoxanthine uptake; format: functional, organism-based
KB = experiment: Cytotoxicity against human KB cells; format: functional, cell-based
Plasmodium falciparum [2] = experiment: Antiplasmodial activity against chloroquine-resistant Plasmodium falciparum W2 as [3H]hypoxanthine uptake; format: functional, organism-based

Row | Compound | IC50 (Plasmodium falciparum [1]) | IC50 (KB) | IC50 (Plasmodium falciparum [2])
1 | COc1ccc2cc1Oc1ccc(cc1)C[C@H]1c3c(cc(O)c4c3Oc3cc5c(cc3O4)CCN(C)[C@H]5C2)CCN1C | 0.0171 µg/mL (≈ 0.0304 µM) | 3.4 µg/mL (≈ 6.04 µM) | 0.063 µg/mL (≈ 0.112 µM)
2 | COc1ccc2cc1Oc1ccc(cc1)C[C@H]1c3cc4c(cc3CCN1C)Oc1c(OC)cc3c(c1O4)[C@H](C2)N(C)CC3 | 0.326 µg/mL (≈ 0.565 µM) | 5.9 µg/mL (≈ 10.2 µM) | 0.204 µg/mL (≈ 0.354 µM)
3 | COc1cc2c3c4c1Oc1cc5c(cc1O4)[C@H](Cc1ccc(cc1)Oc1cc(ccc1O)C[C@@H]3N(C)CC2)N(C)CC5 | 0.306 µg/mL (≈ 0.544 µM) | 12 µg/mL (≈ 21.3 µM) | 0.265 µg/mL (≈ 0.471 µM)
